Values of other authors as cited in US6683169B2, “Nucleic acid encoding the human peptide histidine transporter 1 and methods of use thereof” (Rutgers, The State University of New Jersey, priority 2000, dated 2004).
Peptide text beside a SMILES is read from it.

Molecular target: T1, rPHT1 (Rattus norvegicus, UniProt O09014)
T1 construct: host or cells: Xenopus oocytes
Details: rPHT1 in Xenopus oocytes; for inhibition of histidine transport: inhibition studies

T1 sequence (O09014 whole entry): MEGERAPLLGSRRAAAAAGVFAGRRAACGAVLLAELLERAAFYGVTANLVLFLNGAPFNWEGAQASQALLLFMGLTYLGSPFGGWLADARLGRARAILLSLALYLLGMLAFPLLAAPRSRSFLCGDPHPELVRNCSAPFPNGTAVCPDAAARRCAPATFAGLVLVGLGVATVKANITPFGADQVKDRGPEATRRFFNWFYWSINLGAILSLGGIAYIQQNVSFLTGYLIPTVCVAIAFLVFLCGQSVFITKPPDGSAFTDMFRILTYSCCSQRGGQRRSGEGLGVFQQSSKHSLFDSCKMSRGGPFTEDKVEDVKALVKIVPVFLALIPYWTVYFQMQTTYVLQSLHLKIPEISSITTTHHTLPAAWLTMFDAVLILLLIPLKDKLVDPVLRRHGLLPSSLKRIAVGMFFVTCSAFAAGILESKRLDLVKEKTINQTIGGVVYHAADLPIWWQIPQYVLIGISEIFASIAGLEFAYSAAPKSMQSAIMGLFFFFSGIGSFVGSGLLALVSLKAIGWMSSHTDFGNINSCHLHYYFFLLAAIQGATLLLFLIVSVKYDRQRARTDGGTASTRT

| carnosine uptake versus water-injected control oocytes ([3H]carnosine) | SMILES | inhibition of histidine transport |
| --- | --- | --- |
|  | NCC(=O)NCC(=O)NCC(=O)O [Gly-Gly-Gly] (H-Gly-Gly-Gly-OH) | inhibited |
| significantly higher | NCCC(=O)N[C@@H](Cc1cnc[nH]1)C(=O)O [carnosine] | inhibited |
|  | NCC(=O)NCC(=O)O [Gly-Gly] (H-Gly-Gly-OH) | inhibited |
|  | CC(C)C[C@H](NC(=O)CN)C(=O)O [Gly-Leu] | inhibited |
